Source: patent US20260327240A1, “1,4-CINEOLE DERIVATIVE AND INTERMEDIATE THEREOF, HERBICIDE CONTAINING SAID DERIVATIVE AS ACTIVE INGREDIENT, METHOD FOR USING HERBICIDE, AND METHOD FOR PREPARING AGROCHEMICAL COMPOSITION” (HOKKO CHEMICAL INDUSTRY CO., LTD., priority 2023, published 2026)

What was measured:
Type in all cases: in vivo
[1] = test system: Lindemia pyxidaria; assay: Test Example 2: herbicidal effect test by application during growth period of paddy rice; conditions: 7 days after sowing, 120 g per 10 ares, 14 days after application, read-out: weed inhibition rate
Procedure: (§1) Herbicidal Effect Test by Application During Growth Period of Paddy Rice
(§2) Wagner pots with an area of 1/10,000 […] were filled with paddy soil, followed by addition of water and incorporation of chemical fertilizer (N:P:K=16:16:16), after which puddling was performed. After that, seeds of Echinochloa crus-galli var. formosensis, broad-leaved weeds (Lindemia pyxidaria, and Monochoria vaginalis), and Scirpus juncoides were sown at a depth of 0 cm to 1 cm, 30 seeds each. Immediately after sowing, the pots were flooded and a water depth of approximately 3 cm was maintained. Subsequent management was conducted in a glass greenhouse. Seven days after sowing, an emulsifiable concentrate prepared according to Formulation Example 5 using the compound shown below was diluted with water, and a specified amount of the diluted solution was applied by dropper. The amount of the active ingredient to be applied was equivalent to 120 g per 10 ares. The test was conducted in duplicate for each chemical concentration group, and the herbicidal effect was evaluated 14 days after chemical application using the same criteria as in Test Example 1.

[2] = test system: Digitaria ciliaris; assay: Test Example 3: herbicidal effect test by soil application in upland field; conditions: 1 day after sowing, 120 g per 10 ares, 14 days after application; for inhibition at 1200 g/ha: Digitaria ciliaris, read-out: weed inhibition rate
Procedure: (§3) Herbicidal Effect Test by Soil Application in Upland Field
(§4) Pots with an area of 36 cm^2 were filled with upland soil (alluvial loam), twenty seeds each of weeds of Digitaria ciliaris, Echinochloa crus-galli, Chenopodium album, and Amaranthus viridis were uniformly mixed with the top 1 cm layer of soil and the surface was lightly pressed down. One day after sowing, an emulsifiable concentrate prepared according to Formulation Example 5 using the compound shown below was diluted with water, and the diluted solution was sprayed onto the soil surface at a rate of 100 liters per 10 ares. The amount of the active ingredient to be applied was equivalent to 120 g per 10 ares. Fourteen days after chemical application, the herbicidal effect was evaluated according to the same criteria as in Test Example 1.

[3] = test system: Echinochloa crus-galli; assay: as above; conditions: 1 day after sowing, 120 g per 10 ares, 14 days after application; for inhibition at 1200 g/ha: Echinochloa crus-galli, read-out: weed inhibition rate
Procedure: as §3, §4

[4] = test system: Echinochloa crus-galli var. formosensis; assay: Test Example 1: herbicidal effect test by soil application in paddy rice; conditions: 120 g per 10 ares, 14 days after application; for inhibition at 1200 g/ha: Echinochloa crus-galli, 336 h, read-out: weed inhibition rate
Procedure: (§5) Herbicidal Effect Test by Soil Application in Paddy Rice
as §2, with “(Lindernia pyxidaria” for “(Lindemia pyxidaria,”, “Immediately thereafter,” for “Seven days after sowing,”, “ares.” for “ares. The test was conducted in duplicate for each chemical concentration group, and the herbicidal effect was evaluated 14 days after chemical application using the same criteria as in Test Example 1.”
(§6) The present test was conducted in duplicate for each chemical concentration group, and the weed inhibition rate (%) was determined 14 days after chemical application using the following formula (Math. 1).

[5] = test system: Scirpus juncoides; assay: as above; conditions: 120 g per 10 ares, 14 days after application
Procedure: as §5
as §2, with “(Lindernia pyxidaria” for “(Lindemia pyxidaria,”, “Immediately thereafter,” for “Seven days after sowing,”, “ares.” for “ares. The test was conducted in duplicate for each chemical concentration group, and the herbicidal effect was evaluated 14 days after chemical application using the same criteria as in Test Example 1.”
as §6

[6] = test system: Echinochloa crus-galli var. formosensis; assay: Test Example 2: herbicidal effect test by application during growth period of paddy rice; conditions: 7 days after sowing, 120 g per 10 ares, 14 days after application; for inhibition at 1200 g/ha: Echinochloa crus-galli, read-out: weed inhibition rate
Procedure: as §1, §2

[7] = test system: Scirpus juncoides; assay: as above; conditions: 7 days after sowing, 120 g per 10 ares, 14 days after application
Procedure: as §1, §2

[8] = test system: Digitaria ciliaris; assay: Test Example 4: herbicidal effect test by stem and leaf treatment in upland field; conditions: 7 days after sowing, 120 g per 10 ares, 14 days after application; for inhibition at 1200 g/ha: Digitaria ciliaris, read-out: weed inhibition rate
Procedure: (§7) Herbicidal Effect Test by Stem and Leaf Treatment in Upland Field
as §4, with “Seven days” for “One day”

[9] = test system: Echinochloa crus-galli; assay: as above; conditions: 7 days after sowing, 120 g per 10 ares, 14 days after application; for inhibition at 1200 g/ha: Echinochloa crus-galli, read-out: weed inhibition rate
Procedure: as §7
as §4, with “Seven days” for “One day”

Cc1ccccc1CO[C@@H]1C[C@]2(C(C)C)O[C@@]1(C)C[C@@H]2F [1-2, (1R,2S,4S,5R)-2-fluoro-1-isopropyl-4-methyl-5-((2-methylbenzyl)oxy)-7-oxabicyclo[2.2.1]heptane]
inhibition at 1200 g/ha [1]: ≥ 80%

CC(C)[C@]12C[C@@H](OCc3ccccc3F)[C@](C)(C[C@@H]1Br)O2 [1-19, (1S,2R,4R,5S)-5-bromo-2-[(2-fluorophenyl)methoxy]-1-methyl-4-isopropyl-7-oxabicyclo[2.2.1]heptane]
inhibition at 1200 g/ha [1]: ≥ 80%

CC(=O)O[C@H]1C[C@]2(C)O[C@@]1(C(C)C)C[C@H]2OCc1ccccc1F [1-480, [(1R,2S,4S,5R)-5-[(2-fluorophenyl)methoxy]-4-methyl-1-isopropyl-7-oxabicyclo[2.2.1]heptan-2-yl]acetate]
weed inhibition rate [2]: ≥ 80% | weed inhibition rate [3]: ≥ 80% | weed inhibition rate [4]: ≥ 80% | weed inhibition rate [5]: ≥ 80% | weed inhibition rate [6]: ≥ 80% | weed inhibition rate [7]: ≥ 80% | weed inhibition rate [8]: ≥ 80% | weed inhibition rate [9]: ≥ 80%

CC(C)=CCO[C@@H]1C[C@]2(C(C)C)O[C@@]1(C)C[C@@H]2Br [1-672, (1S,2R,4R,5S)-5-bromo-1-methyl-2-(3-methylbut-2-enoxy)-4-isopropyl-7-oxabicyclo[2.2.1]heptane]
inhibition at 1200 g/ha [1]: ≥ 80%

CC(C)[C@]12C[C@@H](OCc3cccc(C(F)(F)F)c3)[C@](C)(C[C@@H]1Br)O2 [1-701, (1S,2R,4R,5S)-5-bromo-1-methyl-4-isopropyl-2-[[3-(trifluoromethyl)phenyl]methoxy]-7-oxabicyclo[2.2.1]heptane]
inhibition at 1200 g/ha [2]: ≥ 80% | inhibition at 1200 g/ha [3]: ≥ 80% | inhibition at 1200 g/ha [4]: ≥ 80% | inhibition at 1200 g/ha [6]: ≥ 80% | inhibition at 1200 g/ha [8]: ≥ 80% | inhibition at 1200 g/ha [9]: ≥ 80%

CC(C)[C@]12C[C@@H](OCc3ccccc3C#N)[C@](C)(C[C@@H]1Br)O2 [1-703, 2-[[(1S,2R,4R,5S)-5-bromo-1-methyl-4-isopropyl-7-oxabicyclo[2.2.1]heptan-2-yl]oxymethyl]benzonitrile]
inhibition at 1200 g/ha [1]: ≥ 80%

CC(C)[C@]12C[C@@H](OCc3ccccc3F)[C@](C)(C[C@H]1OCC1CC1)O2 [1-921, (1S,2R,4R,5R)-5-(cyclopropylmethoxy)-2-[(2-fluorophenyl)methoxy]-1-methyl-4-isopropyl-7-oxabicyclo[2.2.1]heptane]
inhibition at 1200 g/ha [1]: ≥ 80%

C=CCO[C@@H]1C[C@]2(C)O[C@@]1(C(C)C)C[C@H]2OCc1ccccc1F [1-930, (1S,2R,4R,5R)-2-[(2-fluorophenyl)methoxy]-1-methyl-4-isopropyl-5-prop-2-enoxy-7-oxabicyclo[2.2.1]heptane]
inhibition at 1200 g/ha [1]: ≥ 80%

C#CCO[C@@H]1C[C@]2(C)O[C@@]1(C(C)C)C[C@H]2OCc1ccccc1F [1-931, (1S,2R,4R,5R)-2-[(2-fluorophenyl)methoxy]-1-methyl-4-isopropyl-5-prop-2-ynoxy-7-oxabicyclo[2.2.1]heptane]
inhibition at 1200 g/ha [1]: ≥ 80%

COC1(OC)C[C@]2(C)O[C@@]1(C(C)C)C[C@H]2OCc1ccccc1F [1-935, (1R,4S,5R)-5-((2-fluorobenzyl)oxy)-1-isopropyl-2,2-dimethoxy-4-methyl-7-oxabicyclo[2.2.1]heptane]
inhibition at 1200 g/ha [1]: ≥ 80%

CC(C)[C@]12C[C@@H](OCc3ccccc3F)[C@](C)(C[C@@H]1OCc1ccccc1)O2 [1-1606, (1S,2R,4R,5S)-2-[(2-fluorophenyl)methoxy]-1-methyl-5-phenylmethoxy-4-isopropyl-7-oxabicyclo[2.2.1]heptane]
inhibition at 1200 g/ha [2]: ≥ 80% | inhibition at 1200 g/ha [3]: ≥ 80% | inhibition at 1200 g/ha [4]: ≥ 80% | inhibition at 1200 g/ha [6]: ≥ 80% | inhibition at 1200 g/ha [8]: ≥ 80% | inhibition at 1200 g/ha [9]: ≥ 80%

Cc1ccccc1CO[C@@H]1C[C@]2(C(C)C)O[C@@]1(C)CC2=O [2-3, (1R,4S,5R)-1-isopropyl-4-methyl-5-((2-methylbenzyl)oxy)-7-oxabicyclo[2.2.1]heptan-2-one]
inhibition at 1200 g/ha [1]: ≥ 80%

Cc1cccc(C)c1CO[C@@H]1C[C@]2(C(C)C)O[C@@]1(C)CC2=O [2-5, (1R,4S,5R)-5-((2,6-dimethylbenzyl)oxy)-1-isopropyl-4-methyl-7-oxabicyclo[2.2.1]heptan-2-one]
inhibition at 1200 g/ha [1]: ≥ 80%

CC(C)[C@]12C[C@@H](OCc3ccccc3Cl)[C@](C)(CC1=O)O2 [2-11, (1R,4S,5R)-5-((2-chlorobenzyl)oxy)-1-isopropyl-4-methyl-7-oxabicyclo[2.2.1]heptan-2-one]
inhibition at 1200 g/ha [1]: ≥ 80%

CC(C)[C@]12C[C@@H](OCc3c(F)cccc3F)[C@](C)(CC1=O)O2 [2-20, (1R,4S,5R)-5-((2,6-difluorobenzyl)oxy)-1-isopropyl-4-methyl-7-oxabicyclo[2.2.1]heptan-2-one]
inhibition at 1200 g/ha [1]: ≥ 80%

C=C1C[C@]2(C)O[C@@]1(C(C)C)C[C@H]2OCc1ccccc1C [2-72, (1R,4S,5R)-1-isopropyl-4-methyl-5-((2-methylbenzyl)oxy)-2-methylene-7-oxabicyclo[2.2.1]heptane]
inhibition at 1200 g/ha [1]: ≥ 80%

C=C1C[C@]2(C)O[C@@]1(C(C)C)C[C@H]2OCc1ccccc1F [2-88, (1R,4S,5R)-5-((2-fluorobenzyl)oxy)-1-isopropyl-4-methyl-2-methylene-7-oxabicyclo[2.2.1]heptane]
inhibition at 1200 g/ha [1]: ≥ 80%

CC(C)[C@]12C[C@@H](OCc3ccc(F)cc3)[C@](C)(CC1=O)O2 [2-349, (1R,4S,5R)-5-((4-fluorobenzyl)oxy)-1-isopropyl-4-methyl-7-oxabicyclo[2.2.1]heptan-2-one]
inhibition at 1200 g/ha [1]: ≥ 80%

CC(C)[C@]12C[C@@H](OCc3cccc(F)c3)[C@](C)(CC1=O)O2 [2-351, (1R,4S,5R)-5-((3-fluorobenzyl)oxy)-1-isopropyl-4-methyl-7-oxabicyclo[2.2.1]heptan-2-one]
inhibition at 1200 g/ha [1]: ≥ 80%

Cc1cccc(CO[C@@H]2C[C@]3(C(C)C)O[C@@]2(C)CC3=O)c1 [2-352, (1R,4S,5R)-1-isopropyl-4-methyl-5-((3-methylbenzyl)oxy)-7-oxabicyclo[2.2.1]heptan-2-one]
inhibition at 1200 g/ha [1]: ≥ 80%

CC(C)[C@]12C=C[C@](C)(O1)[C@H](OCc1ccccc1F)C2 [3-5, (1R,4S,5R)-5-[(2-fluorophenyl)methoxy]-4-methyl-1-isopropyl-7-oxabicyclo[2.2.1]hept-2-ene]
inhibition at 1200 g/ha [1]: ≥ 80%
